Source: US10143678B1, “Method of treatment of preventing hyperglycemia complications” (Sunway Biotech Co., LTD, priority 2015, dated 2018)
Marks after values point to notes of the source that are not given here.

Legend:
Type in all cases: in vivo
IL-6 = IL-6 expression in adipose tissue; settings: FIG. 8, vs HFFD group; HFFD-fed SD rats, oral 10 weeks; 1-fold dose mg/kg bw/day: MF 78.06, RMD 104.17, Monascin 0.31 (MS1X), Ankaflavin 0.16 (AK1X), MS-AK 0.31 + 0.16
Text: (§1) The present invention provides a method of treatment of preventing hyperglycemia complications using at least one pharmaceutical made from a red mold product, wherein the red mold product is a red mold rice or a red mold Dioscorea, and the pharmaceutical is an extract obtained from the red mold product. The extract is Monascin, Ankaflavin, or a combination of Monascin and Ankaflavin. […] Moreover, in order to verify the practicability of the method of treatment of preventing hyperglycemia complications proposed by the present invention, a particularly-arranged of animal experiment is completed by inventors. After 1-week pre-feeding, several SD rats are divided into 9 experimental groups for carrying out 10-week animal experiment.
(§2) Please refer to FIG. 8 and FIG. 9, where a statistical bar graph of IL-6 expression in adipose tissue and a statistical bar graph of IL-1β expression in adipose tissue are provided.

HIF-1α = HIF-1α expression in adipose tissue; settings: FIG. 10, vs HFFD group; HFFD-fed SD rats, oral 10 weeks; 1-fold dose mg/kg bw/day: MF 78.06, RMD 104.17, Monascin 0.31 (MS1X), Ankaflavin 0.16 (AK1X), MS-AK 0.31 + 0.16
Text: as §1

[1] = test system: Reactive Oxygen Species (ROS); experiment: ROS concentration in liver; settings: FIG. 4, vs HFFD group; HFFD-fed SD rats, oral 10 weeks; 1-fold dose mg/kg bw/day: MF 78.06, RMD 104.17, Monascin 0.31 (MS1X), Ankaflavin 0.16 (AK1X), MS-AK 0.31 + 0.16
Text: as §1

GLUT-2 = GLUT-2 expression in adipose tissue; settings: FIG. 6, vs HFFD group; HFFD-fed SD rats, oral 10 weeks; 1-fold dose mg/kg bw/day: MF 78.06, RMD 104.17, Monascin 0.31 (MS1X), Ankaflavin 0.16 (AK1X), MS-AK 0.31 + 0.16
Text: as §1

TNF-α = TNF-α expression in adipose tissue; settings: FIG. 5, vs HFFD group; HFFD-fed SD rats, oral 10 weeks; 1-fold dose mg/kg bw/day: MF 78.06, RMD 104.17, Monascin 0.31 (MS1X), Ankaflavin 0.16 (AK1X), MS-AK 0.31 + 0.16
Text: as §1

[2] = test system: SD rats fed with high fat and fructose diet; experiment: Oral glucose tolerance test (OGTT), AUC of blood glucose; settings: FIG. 2, vs HFFD group, oral 10 weeks, 1-fold dose mg/kg bw/day: MF 78.06, RMD 104.17, Monascin 0.31 (MS1X), Ankaflavin 0.16 (AK1X), MS-AK 0.31 + 0.16
Text: as §1

[3] = test system: SD rats fed with high fat and fructose diet; experiment: Liver, kidney and adipose tissue weight after sacrifice; settings: HFFD-fed SD rats, oral 10 weeks
Text: as §1
Insulin is used for impelling the absorption and utilization of blood glucose in liver, muscle and adipose tissue. Because white adipose tissue (WAT) is used for storing triglycerides (TG) transformed from blood glucose, a large amount of accumulation of adipocytes would cause the occurrence of inflammatory response so as to induce lipolysis action. Therefore, the inflammatory-induced lipolysis action would produce a large amount of glycerin and free fatty acid (FFA), so as to aggravate the production of Hyperglycemia, fatty liver, and high blood ketone. Based on above reasons, the effects provided by the different test samples on liver, kidney, and adipose tissue weight of the rats are needed to be determined.
For carrying out the determination of liver, kidney, and adipose tissue weight, it needs to sacrifice the rats. After sacrificing the rat, blood to be determined is collected from the intraperitoneal of the rat by using syringes, and then the collected blood are disposed into a 2-mL microcentrifuge tube. After staying for 5 minutes, the microcentrifuge tube carrying with blood is treated with a centrifugation process, and then the serum of the blood is stored in an environment with −20° C. After that, the liver, kidney, and adipose tissue are taken out of the rat.

adiponectin = experiment: Adiponectin expression in adipose tissue; settings: FIG. 3, vs HFFD group; HFFD-fed SD rats, oral 10 weeks; 1-fold dose mg/kg bw/day: MF 78.06, RMD 104.17, Monascin 0.31 (MS1X), Ankaflavin 0.16 (AK1X), MS-AK 0.31 + 0.16
Text: as §1

GLUT-4 = GLUT-4 expression in adipose tissue; settings: FIG. 7, vs HFFD group; HFFD-fed SD rats, oral 10 weeks; 1-fold dose mg/kg bw/day: MF 78.06, RMD 104.17, Monascin 0.31 (MS1X), Ankaflavin 0.16 (AK1X), MS-AK 0.31 + 0.16
Text: as §1

[4] = test system: SD rats fed with high fat and fructose diet; experiment: Histomorphology of liver slices (fatty liver); settings: FIG. 11, vs HFFD group, oral 10 weeks, 1-fold dose mg/kg bw/day: MF 78.06, RMD 104.17, Monascin 0.31 (MS1X), Ankaflavin 0.16 (AK1X), MS-AK 0.31 + 0.16
Text: as §1

IL-1β = IL-1β expression in adipose tissue; settings: FIG. 9, vs HFFD group; HFFD-fed SD rats, oral 10 weeks; 1-fold dose mg/kg bw/day: MF 78.06, RMD 104.17, Monascin 0.31 (MS1X), Ankaflavin 0.16 (AK1X), MS-AK 0.31 + 0.16
Text: as §1, §2

[5] = 1-fold dose mg/kg bw/day: MF 78.06, RMD 104.17, Monascin 0.31 (MS1X), Ankaflavin 0.16 (AK1X), MS-AK 0.31 + 0.16
[6] = 5-fold dose mg/kg bw/day: Monascin 1.56 (MS5X), Ankaflavin 0.78 (AK5X)

| SMILES | percentage of IL-6 expression in adipose tissue (IL-6) | percentage of HIF-1α expression in adipose tissue (HIF-1α) | ROS level in liver [1] | percentage of GLUT-2 expression in adipose tissue (GLUT-2) | percentage of TNF-α expression in adipose tissue (TNF-α) | AUC (area under curve) of blood glucose [2] | Kidney weight [3, 5] | Occupying percentage of summation of the weights of peri-adrenal and epididymal adipose tissue in body Fat [3, 5] | percentage of adiponectin expression in adipose tissue (adiponectin) | percentage of GLUT-4 expression in adipose tissue (GLUT-4) | formation of fatty liver [4] | percentage of IL-1β expression in adipose tissue (IL-1β) | Kidney weight [3, 6] | Occupying percentage of summation of the weights of peri-adrenal and epididymal adipose tissue in body Fat [3, 6] |
| --- | --- | --- | --- | --- | --- | --- | --- | --- | --- | --- | --- | --- | --- | --- |
| CN(C)C(=N)N=C(N)N [MF, Metformin] | largely lowered | largely lowered | largely lowered | largely enhanced | largely reduced | obviously lower | 3.64 ± 0.26^ab | 4.27 ± 1.43^bc % | largely enhanced | largely enhanced | alleviated or solved | largely lowered | – | – |
| C/C=C/C1=CC2=C(CO1)C(=O)[C@]1(C)OC(=O)[C@H](C(=O)CCCCCCC)[C@H]1C2 [Ankaflavin] | – | – | – | – | – | – | 3.72 ± 0.31^ab | 4.32 ± 0.59^b % | – | – | – | – | 3.55 ± 0.29^ab | 4.30 ± 0.53^b % |
| C/C=C/C1=CC2=C(CO1)C(=O)[C@]1(C)OC(=O)[C@H](C(=O)CCCCC)[C@H]1C2 [Monascin] | – | – | – | – | – | – | 3.61 ± 0.20^ab | 5.12 ± 0.84^bc % | – | – | – | – | 3.71 ± 0.40^ab | 4.97 ± 0.80^bc % |
